Laboratory results taken from patent US20020137929A1, “1 - (3-heterocyclylphenyl) isothiourea, -isourea, -guanidine and -amidine herbicidal agents” (Intellectual Property Department, BASF Aktiengesellschaft, priority 1998, published 2002).

Legend:
[1] = system: ABUTH (Velvetleaf); test: Postemergence herbicidal evaluation; format: in vivo, Abutilon theophrasti; settings: postemergence
Summary of the method: (§1)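 Seedlings grown about two weeks were sprayed at 40 psi with compound dispersed in 50/50 acetone/water plus 0.5% TWEEN 20, at about 0.0156 to 0.500 kg/ha. Plants were kept in the greenhouse and scored 4–5 weeks later on a 0–9 visual scale against untreated controls.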

[2] = system: ZEAMX (Corn, Field); test: Postemergence herbicidal evaluation; format: in vivo, Zea mays; settings: postemergence
Summary of the method: as §1

[3] = system: GALAP (Galium); test: Preemergence herbicidal evaluation; format: in vivo, Galium aparine; settings: rated 4-5 weeks after treatment
Summary of the method: (§2)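 Scores use a 0–9 visual scale covering stand, vigor, malformation, size and chlorosis relative to controls, rated four to five weeks after treatment. Before emergence, soil-planted seeds were sprayed with compound in aqueous acetone at roughly 0.0156–0.500 kg/ha and held in the greenhouse.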

[4] = system: SETVI (Foxtail, Green); test: Postemergence herbicidal evaluation; format: in vivo, Setaria viridis; settings: postemergence
Summary of the method: as §1

[5] = system: SETVI (Foxtail, Green); test: Preemergence herbicidal evaluation; format: in vivo, Setaria viridis; settings: rated 4-5 weeks after treatment
Summary of the method: as §2

[6] = system: ORYSAT (Rice, Tebonnet); test: Postemergence herbicidal evaluation; format: in vivo, Oryza sativa, (L.) Tebonnet; settings: postemergence
Summary of the method: as §1

[7] = system: CHEAL (Lambsquarters, Common); test: Postemergence herbicidal evaluation; format: in vivo, Chenopodium album; settings: postemergence
Summary of the method: as §1

[8] = system: GLXMAW (Soybean, Williams); test: Postemergence herbicidal evaluation; format: in vivo, Glycine max, (L.) Merr. cv Williams; settings: postemergence
Summary of the method: as §1

[9] = system: CYPIR (Rice Flatsedge); test: Preemergence weed control under flooded paddy conditions; format: in vivo, Cyperus iria; settings: rated 3-4 weeks after treatment
Summary of the method: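 Ratings on a 0-9 visual scale cover stand, vigor, malformation, size, chlorosis and overall appearance relative to a control, taken three to four weeks post-treatment. Application was into flood water over freshly sown silt loam at roughly 0.0313 to 0.500 kg/ha.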

[10] = system: AMBEL (Ragweed, Common); test: Preemergence herbicidal evaluation; format: in vivo, Ambrosia artemisifolia; settings: rated 4-5 weeks after treatment
Summary of the method: as §2

[11] = system: TRZAWR (Wheat, Winter, cv Riband); test: Postemergence herbicidal evaluation; format: in vivo, Triticum aestivum; settings: postemergence
Summary of the method: as §1

[12] = rate 0.0156 kg/ha, rating scale 0-9
[13] = rate 0.0313 kg/ha, rating scale 0-9
[14] = rate 0.0625 kg/ha, rating scale 0-9
[15] = rate 0.1250 kg/ha, rating scale 0-9
[16] = rate 0.2500 kg/ha, rating scale 0-9

CCCCOC(=O)CN1C(=O)CSC1=Nc1cc(-n2c(=O)cc(C(F)(F)F)n(C)c2=O)c(F)cc1Cl [Compound 111]
herbicidal rating ABUTH ([1]; rate 0.0158 kg/ha): 7.0
herbicidal rating ABUTH ([1]; rate 0.0315 kg/ha): 9.0
herbicidal rating ABUTH ([1]; rate 0.0630 kg/ha): 9.0
herbicidal rating ZEAMX ([2]; rate 0.0158 kg/ha): 6.5
herbicidal rating ZEAMX ([2]; rate 0.0315 kg/ha): 6.5
herbicidal rating ZEAMX ([2]; rate 0.0630 kg/ha): 7.0
Preemergence herbicidal rating GALAP ([3]; rate 0.0156 kg/ha): 0.0
Preemergence herbicidal rating GALAP ([3]; rate 0.0313 kg/ha): 0.0
Preemergence herbicidal rating GALAP ([3]; rate 0.0625 kg/ha): 0.0
Preemergence herbicidal rating GALAP ([3]; rate 0.1250 kg/ha): 6.0
Preemergence herbicidal rating GALAP ([3]; rate 0.2500 kg/ha): 7.0
herbicidal rating SETVI ([4]; rate 0.0158 kg/ha): 1.0
herbicidal rating SETVI ([4]; rate 0.0315 kg/ha): 9.0
herbicidal rating SETVI ([4]; rate 0.0630 kg/ha): 9.0
Preemergence herbicidal rating SETVI ([5]; rate 0.0156 kg/ha): 0.0
Preemergence herbicidal rating SETVI ([5]; rate 0.0313 kg/ha): 0.0
Preemergence herbicidal rating SETVI ([5]; rate 0.0625 kg/ha): 1.0
Preemergence herbicidal rating SETVI ([5]; rate 0.1250 kg/ha): 7.0
Preemergence herbicidal rating SETVI ([5]; rate 0.2500 kg/ha): 7.0
herbicidal rating ORYSAT ([6]; rate 0.0158 kg/ha): 2.5
herbicidal rating ORYSAT ([6]; rate 0.0315 kg/ha): 4.5
herbicidal rating ORYSAT ([6]; rate 0.0630 kg/ha): 4.5
herbicidal rating CHEAL ([7]; rate 0.0158 kg/ha): 2.0
herbicidal rating CHEAL ([7]; rate 0.0315 kg/ha): 6.0
herbicidal rating CHEAL ([7]; rate 0.0630 kg/ha): 7.0
herbicidal rating GLXMAW ([8]; rate 0.0158 kg/ha): 6.0
herbicidal rating GLXMAW ([8]; rate 0.0315 kg/ha): 6.0
herbicidal rating GLXMAW ([8]; rate 0.0630 kg/ha): 6.0
CYPIR herbicidal effect rating ([9]; 0.0313 kg/ha): 0.0
CYPIR herbicidal effect rating ([9]; 0.0625 kg/ha): 3.0
CYPIR herbicidal effect rating ([9]; 0.1250 kg/ha): 4.0
CYPIR herbicidal effect rating ([9]; 0.2500 kg/ha): 5.0
Preemergence herbicidal rating AMBEL ([10]; rate 0.0156 kg/ha): 0.0
Preemergence herbicidal rating AMBEL ([10]; rate 0.0313 kg/ha): 0.0
Preemergence herbicidal rating AMBEL ([10]; rate 0.0625 kg/ha): 0.0
Preemergence herbicidal rating AMBEL ([10]; rate 0.1250 kg/ha): 6.0
Preemergence herbicidal rating AMBEL ([10]; rate 0.2500 kg/ha): 7.0
herbicidal rating TRZAWR ([11]; rate 0.0158 kg/ha): 2.5
herbicidal rating TRZAWR ([11]; rate 0.0315 kg/ha): 4.5
herbicidal rating TRZAWR ([11]; rate 0.0630 kg/ha): 5.5

Cn1c(C(F)(F)F)cc(=O)n(-c2cc(N=C3SCC(=O)N3Cc3ccc(Cl)cc3)c(Cl)cc2F)c1=O [Compound 145, 3-{4-Chloro-5-{[3-(p-chlorobenzyl)-4-oxo-2-thiazolidinylidene]amino}-2-fluorophenyl}-1-methyl-6-(trifluoromethyl)-2,4(1H,3H)-pyrimidinedione]
herbicidal rating ABUTH ([1]; rate 0.0156 kg/ha): 9.0
herbicidal rating ABUTH ([1]; rate 0.0313 kg/ha): 9.0
herbicidal rating ABUTH ([1]; rate 0.0625 kg/ha): 9.0
herbicidal rating ZEAMX ([2]; rate 0.0156 kg/ha): 4.0
herbicidal rating ZEAMX ([2]; rate 0.0313 kg/ha): 4.0
herbicidal rating ZEAMX ([2]; rate 0.0625 kg/ha): 5.0
Preemergence herbicidal rating GALAP [3, 12]: 0.0
Preemergence herbicidal rating GALAP [3, 13]: 0.0
Preemergence herbicidal rating GALAP [3, 14]: 0.0
Preemergence herbicidal rating GALAP [3, 15]: 1.0
Preemergence herbicidal rating GALAP [3, 16]: 3.0
herbicidal rating SETVI ([4]; rate 0.0156 kg/ha): 1.0
herbicidal rating SETVI ([4]; rate 0.0313 kg/ha): 3.0
herbicidal rating SETVI ([4]; rate 0.0625 kg/ha): 5.0
Preemergence herbicidal rating SETVI [5, 12]: 1.0
Preemergence herbicidal rating SETVI [5, 13]: 0.0
Preemergence herbicidal rating SETVI [5, 14]: 7.0
Preemergence herbicidal rating SETVI [5, 15]: 3.0
Preemergence herbicidal rating SETVI [5, 16]: 7.0
herbicidal rating ORYSAT ([6]; rate 0.0156 kg/ha): 2.5
herbicidal rating ORYSAT ([6]; rate 0.0313 kg/ha): 2.5
herbicidal rating ORYSAT ([6]; rate 0.0625 kg/ha): 3.5
herbicidal rating CHEAL ([7]; rate 0.0156 kg/ha): 5.0
herbicidal rating CHEAL ([7]; rate 0.0313 kg/ha): 9.0
herbicidal rating CHEAL ([7]; rate 0.0625 kg/ha): 9.0
herbicidal rating GLXMAW ([8]; rate 0.0156 kg/ha): 4.5
herbicidal rating GLXMAW ([8]; rate 0.0313 kg/ha): 5.0
herbicidal rating GLXMAW ([8]; rate 0.0625 kg/ha): 5.5
herbicidal effect rating, CYPIR ([9]; 0.0313 kg/ha): 4.0
herbicidal effect rating, CYPIR ([9]; 0.0625 kg/ha): 5.0
herbicidal effect rating, CYPIR ([9]; 0.1250 kg/ha): 7.0
herbicidal effect rating, CYPIR ([9]; 0.2500 kg/ha): 9.0
Preemergence herbicidal rating AMBEL [10, 12]: 0.0
Preemergence herbicidal rating AMBEL [10, 13]: 0.0
Preemergence herbicidal rating AMBEL [10, 14]: 2.0
Preemergence herbicidal rating AMBEL [10, 15]: 5.0
Preemergence herbicidal rating AMBEL [10, 16]: 7.0
herbicidal rating TRZAWR ([11]; rate 0.0156 kg/ha): 3.0
herbicidal rating TRZAWR ([11]; rate 0.0313 kg/ha): 3.0
herbicidal rating TRZAWR ([11]; rate 0.0625 kg/ha): 4.0

C=CCN1C(=O)C(CC(=O)NO)SC1=Nc1cc(-n2c(=O)cc(C(F)(F)F)n(C)c2=O)c(F)cc1Cl (stereo not shown) [Compound 161, 3-Allyl-2-{{2-chloro-5-[3,6-dihydro-3-methyl-2,6-dioxo-4-(trifluoromethyl)-1(2H)-pyrimidinyl]-4-fluorophenyl}imino}-4-oxo-5-thiazolidineacetohydroxamic acid]
herbicidal rating ABUTH ([1]; rate 0.0156 kg/ha): 0.0
herbicidal rating ABUTH ([1]; rate 0.0313 kg/ha): 5.0
herbicidal rating ABUTH ([1]; rate 0.0625 kg/ha): 7.0
herbicidal rating ABUTH ([1]; rate 0.1250 kg/ha): 9.0
herbicidal rating ZEAMX ([2]; rate 0.0156 kg/ha): 4.5
herbicidal rating ZEAMX ([2]; rate 0.0313 kg/ha): 6.5
herbicidal rating ZEAMX ([2]; rate 0.0625 kg/ha): 7.0
herbicidal rating ZEAMX ([2]; rate 0.1250 kg/ha): 7.5
Preemergence herbicidal rating GALAP ([3]; 0.0156 kg/ha): 0.0
Preemergence herbicidal rating GALAP ([3]; 0.0313 kg/ha): 0.0
Preemergence herbicidal rating GALAP ([3]; 0.0625 kg/ha): 3.0
Preemergence herbicidal rating GALAP ([3]; 0.1250 kg/ha): 7.0
Preemergence herbicidal rating GALAP ([3]; 0.2500 kg/ha): 7.0
Preemergence herbicidal rating GALAP ([3]; 0.5000 kg/ha): 9.0
herbicidal rating SETVI ([4]; rate 0.0156 kg/ha): 0.0
herbicidal rating SETVI ([4]; rate 0.0313 kg/ha): 1.0
herbicidal rating SETVI ([4]; rate 0.0625 kg/ha): 7.0
herbicidal rating SETVI ([4]; rate 0.1250 kg/ha): 7.0
Preemergence herbicidal rating SETVI ([5]; 0.0156 kg/ha): 0.0
Preemergence herbicidal rating SETVI ([5]; 0.0313 kg/ha): 0.0
Preemergence herbicidal rating SETVI ([5]; 0.0625 kg/ha): 7.0
Preemergence herbicidal rating SETVI ([5]; 0.1250 kg/ha): 9.0
Preemergence herbicidal rating SETVI ([5]; 0.2500 kg/ha): 9.0
Preemergence herbicidal rating SETVI ([5]; 0.5000 kg/ha): 9.0
herbicidal rating ORYSAT ([6]; rate 0.0156 kg/ha): 2.5
herbicidal rating ORYSAT ([6]; rate 0.0313 kg/ha): 3.0
herbicidal rating ORYSAT ([6]; rate 0.0625 kg/ha): 3.5
herbicidal rating ORYSAT ([6]; rate 0.1250 kg/ha): 3.5
herbicidal rating CHEAL ([7]; rate 0.0156 kg/ha): 1.0
herbicidal rating CHEAL ([7]; rate 0.0313 kg/ha): 5.0
herbicidal rating CHEAL ([7]; rate 0.0625 kg/ha): 7.0
herbicidal rating CHEAL ([7]; rate 0.1250 kg/ha): 9.0
herbicidal rating GLXMAW ([8]; rate 0.0156 kg/ha): 5.0
herbicidal rating GLXMAW ([8]; rate 0.0313 kg/ha): 6.5
herbicidal rating GLXMAW ([8]; rate 0.0625 kg/ha): 7.0
herbicidal rating GLXMAW ([8]; rate 0.1250 kg/ha): 8.5
herbicidal effect rating, CYPIR ([9]; 0.0313 kg/ha): 3.0
herbicidal effect rating, CYPIR ([9]; 0.0625 kg/ha): 4.0
herbicidal effect rating, CYPIR ([9]; 0.1250 kg/ha): 5.0
herbicidal effect rating, CYPIR ([9]; 0.2500 kg/ha): 6.0
Preemergence herbicidal rating AMBEL ([10]; 0.0156 kg/ha): 0.0
Preemergence herbicidal rating AMBEL ([10]; 0.0313 kg/ha): 3.0
Preemergence herbicidal rating AMBEL ([10]; 0.0625 kg/ha): 5.0
Preemergence herbicidal rating AMBEL ([10]; 0.1250 kg/ha): 9.0
Preemergence herbicidal rating AMBEL ([10]; 0.2500 kg/ha): 9.0
Preemergence herbicidal rating AMBEL ([10]; 0.5000 kg/ha): 9.0
herbicidal rating TRZAWR ([11]; rate 0.0156 kg/ha): 2.5
herbicidal rating TRZAWR ([11]; rate 0.0313 kg/ha): 3.5
herbicidal rating TRZAWR ([11]; rate 0.0625 kg/ha): 4.0
herbicidal rating TRZAWR ([11]; rate 0.1250 kg/ha): 4.5
